Experimental data reported in patent publication US20230151025A1, “SUBSTITUTED THIAZOLOPYRIDINES, SALTS THEREOF AND THEIR USE AS HERBICIDALLY ACTIVE SUBSTANCES” (Bayer Aktiengesellschaft, priority 2020, published 2023).

What was measured:
Assay type in all cases: in vivo
[1] = system: Abutilon theophrasti (ABUTH); assay: Herbicidal pre-emergence action (A), 1280 g/ha; conditions: visual grading after ca. 3 weeks vs untreated controls, 100% = plants have died off, 0% = as control plants
In short: (§1)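 Visual grading of plant damage in percent (0% as untreated control, 100% dead) was done about 3 weeks after treatment. Compounds, as WP or EC in water with 0.5% additive, had been sprayed at 600 l/ha onto the covering soil of freshly sown sandy loam pots.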

[2] = system: Alopecurus myosuroides (ALOMY); assay: Herbicidal pre-emergence action (A), 1280 g/ha; conditions: visual grading after ca. 3 weeks vs untreated controls, 100% = plants have died off, 0% = as control plants
In short: as §1

[3] = system: Amaranthus retroflexus (AMARE); assay: Herbicidal pre-emergence action (A), 1280 g/ha; conditions: visual grading after ca. 3 weeks vs untreated controls
In short: as §1

[4] = system: Digitaria sanguinalis (DIGSA); assay: Herbicidal pre-emergence action (A), 1280 g/ha; conditions: visual grading after ca. 3 weeks vs untreated controls, 100% = plants have died off, 0% = as control plants
In short: as §1

[5] = system: Echinochloa crus-galli (ECHCG); assay: Herbicidal pre-emergence action (A), 1280 g/ha; conditions: visual grading after ca. 3 weeks vs untreated controls, 100% = plants have died off, 0% = as control plants
In short: as §1

[6] = system: Kochia scoparia (KCHSC; Bassia scoparia); assay: Herbicidal pre-emergence action (A), 1280 g/ha; conditions: visual grading after ca. 3 weeks vs untreated controls
In short: as §1

Lolium rigidum (LOLRI) [7] = assay: Herbicidal pre-emergence action (A), 1280 g/ha; conditions: visual grading after ca. 3 weeks vs untreated controls, 100% = plants have died off, 0% = as control plants
In short: as §1

[8] = system: Matricaria inodora (MATIN); assay: Herbicidal pre-emergence action (A), 1280 g/ha; conditions: visual grading after ca. 3 weeks vs untreated controls
In short: as §1

Poa annua (POAAN) = assay: Herbicidal pre-emergence action (A), 1280 g/ha; conditions: visual grading after ca. 3 weeks vs untreated controls, 100% = plants have died off, 0% = as control plants
In short: as §1

Setaria viridis (SETVI) [9] = assay: Herbicidal pre-emergence action (A), 1280 g/ha; conditions: visual grading after ca. 3 weeks vs untreated controls
In short: as §1

Stellaria media (STEME) = assay: Herbicidal pre-emergence action (A), 1280 g/ha; conditions: visual grading after ca. 3 weeks vs untreated controls
In short: as §1

Veronica persica (VERPE) [10] = assay: Herbicidal pre-emergence action (A), 1280 g/ha; conditions: visual grading after ca. 3 weeks vs untreated controls
In short: as §1

[11] = system: Alopecurus myosuroides (ALOMY); assay: Herbicidal pre-emergence action (C), 320 g/ha; conditions: ca. 3 weeks
In short: (§2)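 Sandy loam pots, seeds covered with soil → WP/EC compound sprayed on soil surface (aq., +0.5% additive, 600 l/ha) → greenhouse, optimum growth → visual herbicidal effect (%) at ca. 3 wk vs untreated.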

[12] = system: Amaranthus retroflexus (AMARE); assay: Herbicidal pre-emergence action (C), 320 g/ha; conditions: ca. 3 weeks
In short: as §2

[13] = system: Echinochloa crus-galli (ECHCG); assay: Herbicidal pre-emergence action (C), 320 g/ha; conditions: ca. 3 weeks
In short: as §2

Lolium rigidum (LOLRI) [14] = assay: Herbicidal pre-emergence action (C), 320 g/ha; conditions: ca. 3 weeks
In short: as §2

Setaria viridis (SETVI) [15] = assay: Herbicidal pre-emergence action (C), 320 g/ha; conditions: ca. 3 weeks
In short: as §2

Veronica persica (VERPE) [16] = assay: Herbicidal pre-emergence action (C), 320 g/ha; conditions: ca. 3 weeks
In short: as §2

[17] = system: Digitaria sanguinalis (DIGSA); assay: Herbicidal pre-emergence action (C), 320 g/ha; conditions: ca. 3 weeks
In short: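 Weed and crop seeds sown in sandy loam; WP or EC formulations applied pre-emergence to the soil surface as aqueous suspension/emulsion with 0.5% additive at 600 l water/ha. Greenhouse-grown under optimum conditions; damage visually scored after ca. 3 weeks versus untreated controls (0% = as control, 100% = plants dead).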

[18] = system: Alopecurus myosuroides (ALOMY); assay: Herbicidal post-emergence action (D), 320 g/ha; conditions: ca. 3 weeks
In short: (§3)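 Seedlings reaching the single-leaf stage 2 to 3 weeks after sowing in sandy loam received a foliar spray of the formulated compound (WP or EC, 0.5% additive, 600 l water/ha). Damage is rated visually after about 3 weeks in the greenhouse as percent effect relative to untreated plants.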

[19] = system: Amaranthus retroflexus (AMARE); assay: Herbicidal post-emergence action (D), 320 g/ha; conditions: ca. 3 weeks
In short: as §3

[20] = system: Echinochloa crus-galli (ECHCG); assay: Herbicidal post-emergence action (D), 320 g/ha; conditions: ca. 3 weeks
In short: as §3

[21] = system: Polygonum convolvulus (POLCO); assay: Herbicidal post-emergence action (D), 320 g/ha; conditions: ca. 3 weeks
In short: as §3

Veronica persica (VERPE) [22] = assay: Herbicidal post-emergence action (D), 320 g/ha; conditions: ca. 3 weeks
In short: as §3

Compound	ABUTH, herbicidal effect in percent (%) [1] [%]	ALOMY, herbicidal effect in percent (%) [2] [%]	DIGSA, herbicidal effect in percent (%) [4] [%]	ECHCG, herbicidal effect in percent (%) [5] [%]	herbicidal effect KCHSC [6] [%]	LOLRI, herbicidal effect in percent (%) (Lolium rigidum (LOLRI) [7])	herbicidal effect MATIN [8] [%]	POAAN, herbicidal effect in percent (%) (Poa annua (POAAN))	herbicidal effect SETVI (Setaria viridis (SETVI) [9]) [%]	herbicidal effect STEME (Stellaria media (STEME)) [%]	herbicidal effect VERPE (Veronica persica (VERPE) [10]) [%]	herbicidal effect ALOMY [11] [%]	herbicidal effect AMARE [12] [%]	herbicidal effect ECHCG [13] [%]	herbicidal effect LOLRI (Lolium rigidum (LOLRI) [14]) [%]	herbicidal effect SETVI (Setaria viridis (SETVI) [15]) [%]	herbicidal effect VERPE (Veronica persica (VERPE) [16]) [%]	herbicidal effect DIGSA [17] [%]	herbicidal effect ALOMY [18] [%]	herbicidal effect ECHCG [20] [%]	further results
Fc1ccccc1-c1nc2ncsc2cc1Cl [Example I-017]	90	100	100	100	100	100	100	100	100	100	90	100	90	100	100	100	90	100	90	80	herbicidal effect AMARE [3]: 100%; herbicidal effect AMARE [19]: 100%; herbicidal effect POLCO [21]: 90%; herbicidal effect VERPE (Veronica persica (VERPE) [22]): 90%
CCc1cc2scnc2nc1-c1ccccc1F [Example I-023]	90	100	100	100	100	100	100	100	100	90	100	100	80	100	100	100	90	100	90	90	herbicidal effect AMARE [3]: 100%; herbicidal effect AMARE [19]: 100%; herbicidal effect POLCO [21]: 90%; herbicidal effect VERPE (Veronica persica (VERPE) [22]): 90%
CCc1cc2scnc2nc1-c1cccc(F)c1 [Example I-029]	90	100	100	100	100	100	90	100	100	100	90	100	90	100	100	100	90	100	90	90	herbicidal effect AMARE [3]: 100%; herbicidal effect POLCO [21]: 90%; herbicidal effect VERPE (Veronica persica (VERPE) [22]): 90%
Cc1cc2scnc2nc1-c1ccccc1 [Example I-041]	90	100	100	100	100	100	100	100	100	100	100	100	90	100	100	100	90	100	90	100	herbicidal effect AMARE [3]: 100%; herbicidal effect AMARE [19]: 90%; herbicidal effect POLCO [21]: 90%; herbicidal effect VERPE (Veronica persica (VERPE) [22]): 90%
Cc1cc2scnc2nc1-c1ccccc1Cl [Example I-045]	90	100	100	100	100	100	100	100	100	100	100	100	90	100	100	100	90	100	90	90	herbicidal effect AMARE [3]: 100%; herbicidal effect AMARE [19]: 100%; herbicidal effect POLCO [21]: 90%; herbicidal effect VERPE (Veronica persica (VERPE) [22]): 90%
CCc1cc2scnc2nc1-c1ccccc1 [Example I-051]	90	100	100	100	90	100	90	100	100	90	90	100	90	100	100	100	90	100	90	90	herbicidal effect AMARE [19]: 90%; herbicidal effect POLCO [21]: 90%; herbicidal effect VERPE (Veronica persica (VERPE) [22]): 90%
Cc1cc2scnc2nc1-c1ccc(F)cc1F [Example I-122]	100	100	100	100	100	100	100	100	100	100	100	100	90	100	100	100	90	100	90	80	herbicidal effect AMARE [3]: 100%; herbicidal effect AMARE [19]: 80%; herbicidal effect POLCO [21]: 90%; herbicidal effect VERPE (Veronica persica (VERPE) [22]): 90%
Cc1cc2scnc2nc1-c1sccc1Cl [Example I-137]	100	100	100	100	100	100	90	100	100	100	100	100	90	100	100	100	90	100	90	90	herbicidal effect AMARE [3]: 100%; herbicidal effect AMARE [19]: 90%; herbicidal effect POLCO [21]: 80%; herbicidal effect VERPE (Veronica persica (VERPE) [22]): 80%
